Laboratory results published in patent publication US8592468B2, “Bacterial thioredoxin reductase inhibitors and methods for use thereof” (Thioredoxin Systems AB, priority 2006, dated 2013).
≈ marks a conversion by molar mass, not a printed value. Read-outs that look alike come from different tables or passages of the source.

Key:
[1] = system: wild type DHB4 E. coli; assay: Bacterial inhibition by ebselen derivates, MIC; details: for MIC: Escherichia coli, DHB4E.COLI, 4 h, read-out: MIC for wild type DHB4 E. coli; for MIC for wild type DHB4 E. coli: LB, 37° C., 4 hrs, OD600 below 10% of DMSO control; for sensitivity of gshA^− or gor^− strains compared with wt strain: E. coli DHB4 strains
Protocol: (§5) E. coli DHB4 strains wt, gshA^−, gor^−, oxyR^− were cultured overnight in LB medium. […] OD 600 was detected and DMSO was used as the control. […] The data are the means of two experiments.

[2] = system: Gor^- DHB4 E. coli; assay: Bacterial inhibition by ebselen derivates, MIC; details: for MIC: Escherichia coli, 4 h, read-out: MIC for Gor^- DHB4 E. coli; for MIC for Gor^- DHB4 E. coli: LB, 37° C., 4 hrs, OD600 below 10% of DMSO control
Protocol: as §5

[3] = target: T1, E. coli TrxR (Escherichia coli (strain K12), UniProt P0A9P4); assay: Measurement of IC50 of ebselen derivates for E. coli TrxR (DTNB assay); format: biochemical
T1 sequence (P0A9P4 2-321 limits assumed): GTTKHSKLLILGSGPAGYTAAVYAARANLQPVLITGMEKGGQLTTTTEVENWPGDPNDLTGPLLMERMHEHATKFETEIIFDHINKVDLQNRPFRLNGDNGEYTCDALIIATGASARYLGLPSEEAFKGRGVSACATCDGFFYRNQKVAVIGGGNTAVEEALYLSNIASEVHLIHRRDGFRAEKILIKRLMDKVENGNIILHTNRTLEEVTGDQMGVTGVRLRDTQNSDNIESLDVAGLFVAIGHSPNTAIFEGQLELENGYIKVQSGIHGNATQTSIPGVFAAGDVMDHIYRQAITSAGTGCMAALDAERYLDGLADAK
Protocol: For screening of different classes of ebselen derivatives as inhibitors of E. coli TrxR, the compounds of different concentration (1-40 μM) were incubated for a minute with mixture containing 100 nM E. coli TrxR, 200 μM NADPH and 2 μM of E. coli Trx. Then 1 mM DTNB was added and the enzyme activity was followed by the initial linear increase at A412 for 5 minutes.
(§1) All the benzisoselenazol-3(2H)-one and bisbenzisoselenazol-3(2H)-one derivatives were tested as potential E. coli TrxR inhibitors by standard DTNB assay. IC50 values were calculated by following the activity of TrxR reducing DTNB by NADPH at 412 nm. The reactions were started by adding 1 mM DTNB to the mixture of 100 nM TrxR, 2 μM Trx, 240 μM NADPH, and different concentration of inhibitor (1-40 μM). […] The reactions were started by adding 6 nM TrxR at room temperature. Inhibition constants (Ki) for all the compounds were measured from Dixon plot (FIGS. 12A-12F), which plots 1/v versus [I] (v=A412/min, I=Inhibitor concentration, FIGS. 12A-12F). Measured IC50 and Ki values (Table 5) indicate that the compounds EbSe 6-9, 12-16 are potent inhibitors for E. coli TrxR. The presence of covalent bond between selenium and nitrogen is so important for the biological property of ebselen derivatives.

[4] = target: T1, E. coli TrxR; assay: Measurement of Ki of ebselen derivates for E. coli TrxR (Dixon plot, DTNB assay); format: biochemical
Protocol: The detailed inhibition studies using 0.001-4 μM inhibitor were performed in quartz cuvettes and the assay mixture of 500 μL containing E. coli TrxR (6 nM), E. coli Trx (1 or 2 or 4 μM), NADPH (240 μM), and DTNB (1 mM using Zeiss or Ultrospec 3000 Uv-visible spectrophotometer. E. coli TrxR activities were subsequently determined using the standard DTNB assay.
as §1

[5] = system: gshA^- DHB4 E. coli; assay: Bacterial inhibition by ebselen derivates, MIC; details: LB, 37° C., 4 hrs, OD600 below 10% of DMSO control
Protocol: as §5

[6] = target: T1, E. coli TrxR; format: biochemical
Protocol: In FIG. 6A, 10 μM of ebselen (▴) and 10 μM of PZ25 (▪) were used as substrate of 25 nM calf thymus TrxR. In FIG. 6B, 10 μM of PZ25 was used as substrate for 10 nM calf thymus TrxR (◯) and 10 nM of E. coli TrxR (●). Reactions were started by adding enzymes in cuvettes containing 500 μl TE buffer with 100 μM NADPH, of which the consumption were followed by the changes of the absorption at 340 nm against identical blank without enzymes.
(§2) Reactions were started by adding enzymes to cuvettes containing 500 μl TE buffer with 100 μM NADPH and 16 μM compounds. The NADPH consumption was followed by the changes of the absorption at 340 nm against identical blank without enzymes.
(§3) The activity of the enzyme was determined at room temperature using an Ultrospec 3000 UV/Visual spectrophotometer (Amersham Biosciences). […] The enzyme-catalysed reactions were followed at 340 nm using the standard calculation of NADPH oxidation to NADP^+ with a molar extinction coefficient of 6200 M^−1 cm^−1 (32, 34). The conditions of the assay of bacterial thioredoxin reductase have been described (32, 34) using either 1 mM DTNB or 160 μM insulin as a substrate. In DTNB coupled assays, 240 μM NADPH and 1 mM DTNB were used in the TE buffer and formation of the TNB was measured at 412 nm, where TNB has an extinction coefficient of 13600 M^−1 cm^−1.
(§4) Further we examined the effect of ebselen in the reduction of disulphide by E. coli Trx and TrxR using both DTNB and insulin as substrates. […] FIGS. 4A and 4B show the effect of ebselen (4A) and ebselen diselenide (4B) on DTNB reduction by E. coli thioredoxin and thioredoxin reductase. Assays in semi-microcuvettes with 0.5 ml solution contained 0.24 mM NADPH, 1 mM DTNB in 50 mM Tris-Cl/1 mM EDTA, pH 7.5 buffer. (A) In the presence of 2 μM (grey filled points), 5 μM (white filled points) and 10 μM (black filled points) of E. coli Trx and 7.6 nM of E. coli TrxR with ebselen at concentrations of zero (squares), 0.5 μM (triangles), 1 μM (rhombus), and 2 μM (rounds), the increase in A412 was measured against a blank. (B) In the presence of 2 μM (grey filled points), 5 μM (white filled points) and 10 μM (black filled points) of E. coli Trx and 10 nM of E. coli TrxR, with ebselen diselenide at concentrations of zero (squares), 1 μM (triangles) and 2 μM (rounds), the increase in A412 was measured against a blank.

[7] = target: Mammalian TrxR (Bos taurus (Bovine), UniProt O62768); assay: Compounds as substrates of mammalian (calf thymus) TrxR, NADPH consumption; format: biochemical
Mammalian TrxR (Bos taurus (Bovine), UniProt O62768), sequence (O62768 whole entry, looked up): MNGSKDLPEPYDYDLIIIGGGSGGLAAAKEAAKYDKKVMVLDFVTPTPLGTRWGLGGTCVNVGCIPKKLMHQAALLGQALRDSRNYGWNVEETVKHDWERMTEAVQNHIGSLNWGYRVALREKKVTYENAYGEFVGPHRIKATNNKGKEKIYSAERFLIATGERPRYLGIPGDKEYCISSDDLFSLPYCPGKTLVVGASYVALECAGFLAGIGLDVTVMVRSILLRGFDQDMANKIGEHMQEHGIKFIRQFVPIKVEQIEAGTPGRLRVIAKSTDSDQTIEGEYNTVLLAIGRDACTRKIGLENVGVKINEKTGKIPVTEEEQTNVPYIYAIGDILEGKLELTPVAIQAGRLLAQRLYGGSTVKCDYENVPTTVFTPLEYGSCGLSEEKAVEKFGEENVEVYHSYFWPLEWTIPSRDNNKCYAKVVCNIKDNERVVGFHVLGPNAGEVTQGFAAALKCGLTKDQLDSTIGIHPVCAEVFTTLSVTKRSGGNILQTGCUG
Protocol: FIGS. 6A and 6B show ebselen and its sulphur analogue, PZ25, as substrates of calf-thymus TrxR and PZ25 as substrate of E. coli TrxR. In FIG. 6A, 10 μM of ebselen (▴) and 10 μM of PZ25 (▪) were used as substrate of 25 nM calf thymus TrxR. In FIG. 6B, 10 μM of PZ25 was used as substrate for 10 nM calf thymus TrxR (◯) and 10 nM of E. coli TrxR (●). Reactions were started by adding enzymes in cuvettes containing 500 μl TE buffer with 100 μM NADPH, of which the consumption were followed by the changes of the absorption at 340 nm against identical blank without enzymes.
as §2, with “Ebselen diselenide (Δ) and PZ25 disulfide (◯) were reduced with 10 nM calf thymus TrxR, while PZ25 disulphide was reduced by 10 nM of E. coli TrxR (●). Reactions” for “Reactions”
The activity of the enzyme was determined at room temperature using an Ultrospec 3000 UV/Visual spectrophotometer (Amersham Biosciences). Measurements of TrxR activity from both calf thymus and E. coli were performed in a buffer containing 50 mM Tris-Cl, 1 mM EDTA, pH 7.5, generally with 100 μM NADPH and the indicated amount of the drugs. The enzyme-catalysed reactions were followed at 340 nm using the standard calculation of NADPH oxidation to NADP^+ with a molar extinction coefficient of 6200 M^−1 cm^−1 (32, 34). The conditions of the assay of bacterial thioredoxin reductase have been described (32, 34) using either 1 mM DTNB or 160 μM insulin as a substrate. In DTNB coupled assays, 240 μM NADPH and 1 mM DTNB were used in the TE buffer and formation of the TNB was measured at 412 nm, where TNB has an extinction coefficient of 13600 M^−1 cm^−1.

[8] = target: T1, E. coli TrxR; assay: Inhibition of E. coli TrxR reduction of Trx, DTNB coupled assay (Lineweaver-Burk); format: biochemical
Protocol: FIGS. 4A and 4B show the effect of ebselen (FIG. 4A) and ebselen diselenide (FIG. 4B) on DTNB reduction by E. coli thioredoxin and thioredoxin reductase. Assays were contained in 0.50 ml semi-microcuvettes containing 0.24 mM NADPH, 1 mM DTNB in 0.10 M Tris-Cl, pH 8.0, 1 mM EDTA. The increase in A412 was measured against a blank using 10 nM E. coli TrxR in the presence of 2 μM (grey filled points), 5 μM (white filled points), 10 μM (black filled points) E. coli Trx with 0 (squares), 0.5 μM (triangles), 1 μM (rhombus), 2 μM (rounds) of ebselen or ebselen diselenide.
(A) Ebselen concentrations were 0 μM (▴), 0.5 μM (∀), 1 μM (▪) and 2 μM (Δ). […] (B) Ebselen concentrations were 0 μM (▴), 1 μM (▪) and 2 μM (∀).
as §3, §4

[9] = system: H. pylori strains; assay: Inhibition of the growth of H. pylori by PZ-25 (ebsulfur); format: cell-based
[10] = target: H. pylori TrxR (Helicobacter pylori (strain ATCC 700392 / 26695) (Campylobacter pylori), UniProt P56431); assay: Inhibition of H. pylori TrxR by ebsulfur, insulin reduction assay; format: biochemical; details: 4, 20, and 40 μM
H. pylori TrxR, sequence (P56431 whole entry, looked up): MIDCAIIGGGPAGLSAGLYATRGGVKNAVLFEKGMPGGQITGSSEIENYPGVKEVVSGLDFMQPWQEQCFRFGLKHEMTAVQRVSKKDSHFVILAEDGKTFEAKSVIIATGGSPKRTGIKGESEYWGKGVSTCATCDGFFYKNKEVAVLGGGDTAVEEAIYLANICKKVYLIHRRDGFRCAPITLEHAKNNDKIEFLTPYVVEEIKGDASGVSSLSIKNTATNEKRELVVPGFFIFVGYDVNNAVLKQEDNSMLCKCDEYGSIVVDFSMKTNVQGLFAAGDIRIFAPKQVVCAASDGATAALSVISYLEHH
Protocol: H. pylori TrxR activity was followed by insulin reduction after 4 μM of H. pylori Trx addition, where a decrease in absorbance at 340 nm represents activity.

[11] = system: Staphylococcus aureus; details: compared with PZ51; cited from earlier work
[12] = target: E. coli Trx-(SH)2 (Escherichia coli (strain K12), UniProt P0AA25); details: fluorescence spectroscopy; cited from earlier work
[13] = system: Mammalian TrxR; details: from reference; cited from earlier work
[14] = 100 nM TrxR, 2 μM Trx, 1 mM DTNB, read-out: IC50 for E. coli TrxR
[15] = 6 nM TrxR, Trx 1, 2 or 4 μM, Dixon plot, read-out: Ki for E. coli TrxR

O=c1c2ccccc2[se]n1-c1ccc(Cl)cc1 [EbSe 7]
MIC [1]: 34 µM (≈ 10.5 µg/mL) | MIC [2]: 23 µM (≈ 7.1 µg/mL)

Cc1cc(Cl)ccc1-n1[se]c2ccccc2c1=O [EbSe 8]
MIC [1]: 47 µM (≈ 15.2 µg/mL) | MIC [2]: 24 µM (≈ 7.74 µg/mL)

O=C(O)c1ccccc1-n1[se]c2ccccc2c1=O [EbSe 9]
MIC [1]: 49 µM (≈ 15.6 µg/mL) | IC50 [3]: 7500 nM | MIC [2]: 31 µM (≈ 9.86 µg/mL) | Ki [4]: 1200 nM

O=C(O)c1ccc(-n2[se]c3ccccc3c2=O)cc1 [EbSe 10]
IC50 [3]: 15000 nM

O=c1c2ccccc2[se]n1-c1ccc(Cl)cn1 [EbSe 11]
MIC for wild type DHB4 E. coli [1]: No Inhibition | IC50 [3, 14]: > 40000 nM | MIC for Gor^- DHB4 E. coli [2]: No Inhibition | MIC for gshA^- DHB4 E. coli [5]: No Inhibition

O=c1c2ccccc2[se]n1-c1ncccc1[N+](=O)[O-] [EbSe 12]
MIC for wild type DHB4 E. coli [1]: No Inhibition | IC50 [3, 14]: 3000 nM | MIC for Gor^- DHB4 E. coli [2]: No Inhibition | MIC for gshA^- DHB4 E. coli [5]: No Inhibition | Ki [4, 15]: 250 nM

O=c1c2ccccc2[se]n1-c1ccncc1 [EbSe 13]
MIC [1]: 45 µM (≈ 12.4 µg/mL) | MIC [2]: 24 µM (≈ 6.6 µg/mL)

O=c1c2ccccc2[se]n1CCn1[se]c2ccccc2c1=O [EbSe 14]
sensitivity of gshA^− or gor^− strains compared with wt strain [1]: same sensitivity | MIC [1]: 23 µM (≈ 9.71 µg/mL) | MIC [2]: 19 µM (≈ 8.02 µg/mL)

O=c1c2ccccc2[se]n1CCCn1[se]c2ccccc2c1=O [EbSe 15]
Ki [4, 15]: 40 nM

O=c1c2ccccc2[se]n1CCCCCCn1[se]c2ccccc2c1=O [EbSe 16]
sensitivity of gshA^− or gor^− strains compared with wt strain [1]: same sensitivity | MIC [1]: 20 µM (≈ 9.57 µg/mL) | MIC [2]: 35 µM (≈ 16.7 µg/mL)

O=C(Nc1ccccc1)c1ccccc1SSc1ccccc1C(=O)Nc1ccccc1 [PZ25 disulphide]
Km ([6]; E. coli TrxR): 27.6 µM | kcat ([6]; E. coli TrxR): 1.67 s⁻¹ | kcat/KM ([6]; E. coli TrxR): 60500 M⁻¹ s⁻¹ | Km [7]: 47 µM | kcat [7]: 25 s⁻¹ | kcat/KM [7]: 533000 M⁻¹ s⁻¹

O=c1c2ccccc2sn1-c1ccccc1 [PZ25]
inhibition of E. coli TrxR (in words) [8]: not inhibitors | MIC ([9]; NCTC11637 strain): 1.56 µg/mL (≈ 6.86 µM) | MIC ([9]; strain YS-16): 0.39 µg/mL (≈ 1.72 µM) | kcat ([6]; E. coli TrxR): 11.7 s⁻¹ | kcat/KM ([6]; E. coli TrxR): 4.67e+06 M⁻¹ s⁻¹ | Km [7]: 2.5 µM | kcat [7]: 23.33 s⁻¹ | kcat/KM [7]: 9.33e+06 M⁻¹ s⁻¹ | H. pylori TrxR activity [10]: inhibited | antibacterial activity of the sulphur analogue [11]: lost the antibacterial activity

O=C(Nc1ccccc1)c1ccccc1[Se][Se]c1ccccc1C(=O)Nc1ccccc1 [ebselen diselenide]
inhibition of E. coli TrxR (in words) [8]: strongly inhibited | Ki ([8]; Ki (competitive inhibitor of Trx reduction by E. coli TrxR), from Lineweaver-Burk slopes): 460 ± 50 nM | Ki ([8]; read-out: Ki (competitive inhibitor of Trx reduction by E. coli TrxR), from Lineweaver-Burk slopes): 460 nM | oxidation of NADPH when directly added to E. coli TrxR and NADPH [6]: no oxidations of NADPH | second-order rate constant of reaction with reduced E. coli Trx [12]: 1700 M⁻¹ s⁻¹ | Km [13]: 40 µM | kcat [13]: 1.32 s⁻¹ | kcat/KM [13]: 33000 M⁻¹ s⁻¹
